Source: US12163169B2, “Inducible chimeric cytokine receptors” (Allogene Therapeutics, Inc., priority 2018, dated 2024)
Ends that are not written are not given here.

Test system: STAT5
Experiment: HEK293T Stat5 reporter assay of FKBP switches lacking JAK-binding motifs or cytotail tyrosines (Example 3B)
Format: cell-based
Details: 5 hours post-treatment, compared to positive control FKBP switch TpoR(478-582)/IL7R(316-459), FIG. 5B
Text: To identify components essential for the inducible chimeric cytokine receptor to signal, we generated FKBP switches that lacked either the JAK-binding domains or tyrosine residues in the cytotail domain. Specifically, either one or both JAK-binding motifs from TpoR(478-582) were replaced with glycine linkers, or all or a single (i.e. Y449) tyrosine residue(s) in the IL7R(316-459) cytotail was mutated to phenylalanine. The term “switch” as used in the Example section refers to the inducible chimeric cytokine receptor. For example, an “FKBP switch” as used herein is an inducible chimeric cytokine receptor comprising FKBP as the dimerization domain.
A HEK293T cell reporter assay was used to test how each of these domains affected cytokine signaling. Briefly, 20,000 HEK293T cells were plated into each well of a poly-L-lysine-coated 96-well flat-bottom plate and allowed to adhere overnight. […] 24 hours after transfection, cells were either left untreated, or treated with the indicated concentrations of AP1903 (Apex Bio) diluted in serum-free media, and Stat reporter activity was determined 5 hours post-treatment using the Dual-Glo Luciferase Assay System (Promega). […]

AP1903-induced Stat5 reporter activity: abrogates Stat5 activity
Substance: IL7R(424-459; Y456F): FKBP switch (Example 16) cytotail said to abrogate Stat5 activity, used as comparator (GILTLNPVAQGQPILTSLGSNQEEAYVTMSSFFQNQ; also: FKBP switch fusion; UniProt P16871 424-459, looked up, variant Y456F)
